Source: PubChem BioAssay (NCI)
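Test compounds were applied to cells in 96-well plates for 48 hours at 5 doses. Definition used: TGI = concentration required for complete inhibition of growth.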

Experiments:
Test in all cases: inhibition of tumour cell growth, NCI panel, 48 h
MCF7 breast = test system: MCF7 breast
HT29 colon = test system: HT29 colon
TK-10 renal = test system: TK-10 renal
SNB-19 CNS = test system: SNB-19 CNS
CCRF-CEM leukemia = test system: CCRF-CEM leukemia
K-562 leukemia = test system: K-562 leukemia
COLO 205 colon = test system: COLO 205 colon
PC-3 prostate = test system: PC-3 prostate
UACC-257 melanoma = test system: UACC-257 melanoma
SNB-75 CNS = test system: SNB-75 CNS
MDA-MB-435 = test system: MDA-MB-435
NCI-H522 lung = test system: NCI-H522 lung
RXF 393 renal = test system: RXF 393 renal
A549 NSCLC = test system: A549 NSCLC
SF-295 CNS = test system: SF-295 CNS
HL-60(TB) leukemia = test system: HL-60(TB) leukemia
HOP-62 NSCLC = test system: HOP-62 NSCLC
SR leukemia = test system: SR leukemia
BT-549 breast = test system: BT-549 breast
M14 melanoma = test system: M14 melanoma
HCT-116 colon = test system: HCT-116 colon
UO-31 renal = test system: UO-31 renal
NCI/ADR-RES ovarian = test system: NCI/ADR-RES ovarian
OVCAR-8 ovarian = test system: OVCAR-8 ovarian
CAKI-1 renal = test system: CAKI-1 renal
MALME-3M melanoma = test system: MALME-3M melanoma
MDA-MB-231 breast = test system: MDA-MB-231 breast
IGROV1 ovarian = test system: IGROV1 ovarian
SK-MEL-28 melanoma = test system: SK-MEL-28 melanoma
HCT-15 colon = test system: HCT-15 colon
HCC-2998 colon = test system: HCC-2998 colon
786-0 renal = test system: 786-0 renal
NCI-H23 lung = test system: NCI-H23 lung
DU-145 prostate = test system: DU-145 prostate
SF-539 CNS = test system: SF-539 CNS
A498 renal = test system: A498 renal
MDA-N = test system: MDA-N
SK-MEL-5 melanoma = test system: SK-MEL-5 melanoma
SK-OV-3 ovarian = test system: SK-OV-3 ovarian
EKVX NSCLC = test system: EKVX NSCLC
LOX IMVI melanoma = test system: LOX IMVI melanoma
HS 578T breast = test system: HS 578T breast
ACHN renal = test system: ACHN renal
MOLT-4 leukemia = test system: MOLT-4 leukemia
SW-620 colon = test system: SW-620 colon
SK-MEL-2 melanoma = test system: SK-MEL-2 melanoma
SN12C renal = test system: SN12C renal
RPMI-8226 leukemia = test system: RPMI-8226 leukemia
NCI-H226 lung = test system: NCI-H226 lung
OVCAR-3 ovarian = test system: OVCAR-3 ovarian
NCI-H460 lung = test system: NCI-H460 lung
KM12 colon = test system: KM12 colon
SF-268 CNS = test system: SF-268 CNS
OVCAR-5 ovarian = test system: OVCAR-5 ovarian
U251 CNS = test system: U251 CNS
UACC-62 melanoma = test system: UACC-62 melanoma
T-47D breast = test system: T-47D breast
HOP-92 NSCLC = test system: HOP-92 NSCLC
OVCAR-4 ovarian = test system: OVCAR-4 ovarian

Cc1ccc(N2C(=O)CC(=O)N(NC(=O)C(C)Oc3ccccc3C)C2=S)cc1 (centres undefined)
TGI (MCF7 breast): > 100 µM
TGI (HT29 colon): > 100 µM
TGI (TK-10 renal): > 100 µM
TGI (SNB-19 CNS): > 100 µM
TGI (CCRF-CEM leukemia): 5.59 µM
TGI (K-562 leukemia): > 100 µM
TGI (COLO 205 colon): > 100 µM
TGI (PC-3 prostate): > 100 µM
TGI (UACC-257 melanoma): > 100 µM
TGI (SNB-75 CNS): > 100 µM
TGI (MDA-MB-435): > 100 µM
TGI (NCI-H522 lung): > 100 µM
TGI (RXF 393 renal): > 100 µM
TGI (A549 NSCLC): > 100 µM
TGI (SF-295 CNS): > 100 µM
TGI (HL-60(TB) leukemia): > 100 µM
TGI (HOP-62 NSCLC): > 100 µM
TGI (SR leukemia): > 100 µM
TGI (BT-549 breast): > 100 µM
TGI (M14 melanoma): > 100 µM
TGI (HCT-116 colon): > 100 µM
TGI (UO-31 renal): > 100 µM
TGI (NCI/ADR-RES ovarian): > 100 µM
TGI (OVCAR-8 ovarian): > 100 µM
TGI (CAKI-1 renal): > 100 µM
TGI (MALME-3M melanoma): > 100 µM
TGI (MDA-MB-231 breast): > 100 µM
TGI (IGROV1 ovarian): > 100 µM
TGI (SK-MEL-28 melanoma): > 100 µM
TGI (HCT-15 colon): > 100 µM
TGI (HCC-2998 colon): > 100 µM
TGI (786-0 renal): > 100 µM
TGI (NCI-H23 lung): > 100 µM
TGI (DU-145 prostate): > 100 µM
TGI (SF-539 CNS): > 100 µM
TGI (A498 renal): > 100 µM
TGI (MDA-N): > 100 µM
TGI (SK-MEL-5 melanoma): > 100 µM
TGI (SK-OV-3 ovarian): > 100 µM
TGI (EKVX NSCLC): > 100 µM
TGI (LOX IMVI melanoma): > 100 µM
TGI (HS 578T breast): > 100 µM
TGI (ACHN renal): > 100 µM
TGI (MOLT-4 leukemia): > 100 µM
TGI (SW-620 colon): > 100 µM
TGI (SK-MEL-2 melanoma): > 100 µM
TGI (SN12C renal): > 100 µM
TGI (RPMI-8226 leukemia): > 100 µM
TGI (NCI-H226 lung): > 100 µM
TGI (OVCAR-3 ovarian): > 100 µM
TGI (NCI-H460 lung): > 100 µM
TGI (KM12 colon): > 100 µM
TGI (SF-268 CNS): > 100 µM
TGI (OVCAR-5 ovarian): > 100 µM
TGI (U251 CNS): > 100 µM
TGI (UACC-62 melanoma): > 100 µM
TGI (T-47D breast): > 100 µM
TGI (HOP-92 NSCLC): > 100 µM
TGI (OVCAR-4 ovarian): > 100 µM
